Results published in patent US20210253598A1, “ARYL ANNULATED MACROCYCLIC INDOLE DERIVATIVES” (priority 2017, published 2021).
Read-outs that look alike come from different tables or passages of the source.

Columns and labels:
MCL-1 = MCL-1 (Homo sapiens, UniProt Q07820, K194A/K197A/R201A); test: Protein-protein interaction assay MCL-1/Noxa BH3 peptide, TR-FRET (MCL-1 assay, Assay 1); type: binding; conditions: MCL-1 Assay [M] (median), MBP-MCL-1 / Noxa BH3 peptide
Outline: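 TR-FRET competition between compounds and a biotin-PEG Noxa BH3 tracer for 1 nM MBP-MCL-1 (residues 173-321). Incubation was 1 h at 22 °C in the dark, then overnight at 4 °C, in 50 mM Tris pH 7 buffer with KF and DTT, after a 10-min compound pre-equilibration. Normalized ratios were fitted with a 4-parameter Hill equation to give IC50.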

BCL-XL = BCL-XL (Homo sapiens, UniProt Q07817); test: Protein-protein interaction assay BCL-XL/Bad BH3 peptide, TR-FRET (BCL-XL assay, Assay 2); type: binding; conditions: His-BCL-XL / Bad BH3 peptide, median
Method: Protein-Protein Interaction Assay: BCL-XL/Bad BH3 Peptide (BCL-XL Assay)
The dose-dependent inhibition by the compounds described in this invention of the interaction between BCL-XL and the BH3 domain of Bad (both human) was determined using a steady state binding competition assay with time-resolved fluorescence energy transfer (TR-FRET) readout. For that purpose BCL-XL (amino acids 1-212, C-terminal fused to a hexahistidine (6×His) tag (SEQ ID 3) and a synthetic Bad BH3-derived peptide of sequence Biotin-PEG2-PEG2-[sequence]-Nle-[sequence]-amide (SEQ ID 4) served as protein receptor and tracer ligand respectively. The recombinant BCL-XL protein (expressed in E. coli) was purchased from BPS Bioscience (San Diego, Calif., USA). The Bad BH3-derived peptide can be obtained from e.g. Biosyntan (Berlin, Germany).
For that, 100-fold concentrated DMSO solutions were prepared by serial dilutions (1:3.4) of a 2 mM stock solution in a clear, 384-well microtiter plate (Greiner Bio-One, Frickenhausen, Germany). From there, 50 nl were transferred in a dark test plate (Greiner Bio-One, Frickenhausen, Germany). The assay was initiated by addition of 2 μl of a 2,5-fold concentrated His-BCL-XL solution (usually for a 1 nM end concentration in 5 μl reaction volume) in aqueous assay buffer [50 mM Tris/HCl pH 7, 100 mM sodium chloride (NaCl), 50 mM potassium fluoride (KF), 0.005% Tween-20, 2 mM DTT, 0.1% bovine gamma globulin (BGG)] to the compounds in the assay plate. This was followed by a 10-minute incubation step at 22° C. for pre-equilibration of the putative complex between His-BCL-XL and the compounds.
The mixture was incubated in the dark for one hour at 22° C. and then overnight at 4° C. The formation of BCL-XL/Bad complexes was determined by measuring the resonance energy transfer of the anti-His- Eu-cryptate antibody to the streptavidin-XL665 present in the reaction. For that purpose, the fluorescence emission at 620 nm and 665 nm after excitation at 330-350 nm was measured in a TR-FRET measuring instrument, for instance a Rubystar or a Pherastar (both from BMG Lab Technologies, Offenburg, Germany) or a Viewlux (Perkin-Elmer). The ratio of the emission at 665 nm and at 622 nm was used as indicator of the amount of BCL-XL/Bad complexes present.
(§4) The resulting data (ratio) were normalized, taking 0% inhibition as the mean value of control measurements (usually 32 data points) where all reagents were included. In this case 50 nl DMSO were used instead of compounds. […] IC50 values were determined by regression analysis based on a 4 parameter equation (minimum, maximum, IC50, Hill; Y=Max+(Min−Max)/(1+(X/IC50)^Hill) using the Screener Software (Genedata).

BCL-2 = BCL-2 (Homo sapiens, UniProt P10415); test: Protein-protein interaction assay BCL-2/Bad BH3 peptide, TR-FRET (BCL-2 assay, Assay 3); type: binding; conditions: His-BCL-2 / Bad BH3 peptide, median
Method: The dose-dependent inhibition by the compounds described in this invention of the interaction between BCL-2 and the BH3 domain of Bad (both human) was determined using a steady state binding competition assay with time-resolved fluorescence energy transfer (TR-FRET) readout. For that purpose BCL-2 (amino acids 1-211, C-terminal fused to a hexahistidine (6×His) tag (SEQ ID 5) and a synthetic Bad BH3-derived peptide of sequence Biotin-PEG2-PEG2-[sequence]-Nle-[sequence]-amide (SEQ ID 4) served as protein receptor and tracer ligand respectively. The recombinant BCL-2 protein (expressed in E. coli) was purchased from BPS Bioscience (San Diego, Calif., USA). The Bad BH3-derived peptide can be obtained from e.g. Biosyntan (Berlin, Germany).
For that, 100-fold concentrated DMSO solutions were prepared by serial dilutions (1:3.4) of a 2 mM stock solution in a clear, 384-well microtiter plate (Greiner Bio-One, Frickenhausen, Germany). From there, 50 nl were transferred in a dark test plate (Greiner Bio-One, Frickenhausen, Germany). The assay was initiated by addition of 2 μl of a 2,5-fold concentrated His-BCL-2 solution (usually for a 1 nM end concentration in 5 μl reaction volume) in aqueous assay buffer [50 mM Tris/HCl pH 7, 100 mM sodium chloride (NaCl), 50 mM potassium fluoride (KF), 0.005% Tween-20, 2 mM DTT, 0.1% bovine gamma globulin (BGG)] to the compounds in the assay plate. This was followed by a 10-minute incubation step at 22° C. for pre-equilibration of the putative complex between His-BCL-2 and the compounds.
The mixture was incubated in the dark for one hour at 22° C. and then overnight at 4° C. The formation of BCL-2/Bad complexes was determined by measuring the resonance energy transfer of the anti-His-Eu-cryptate antibody to the streptavidin-XL665 present in the reaction. For that purpose, the fluorescence emission at 620 nm and 665 nm after excitation at 330-350 nm was measured in a TR-FRET measuring instrument, for instance a Rubystar or a Pherastar (both from BMG Lab Technologies, Offenburg, Germany) or a Viewlux (Perkin-Elmer). The ratio of the emission at 665 nm and at 622 nm was used as indicator of the amount of BCL-2/Bad complexes present.
as §4

SUDHL5 [1] = test: Induction of caspase-3/7 activity in SUDHL5 cells (Assay 4); type: cell-based; conditions: Homo sapiens, SU-DHL-5, 3 h, SUDHL5, 3 hours treatment, Caspase-Glo 3/7; median; read-out: Caspase SUDHL5 [M] (median)
Outline: (§1)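 Luminescent Caspase-Glo 3/7 read-out in SUDHL5 and SUDHL10 cells after 3 h compound exposure at 37 °C, followed by 1 h reagent incubation.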

SUDHL10 [2] = test: Induction of caspase-3/7 activity in SUDHL10 cells (Assay 4); type: cell-based; conditions: Homo sapiens, SU-DHL10, 3 h, SUDHL10, 3 hours treatment, Caspase-Glo 3/7; median; read-out: Caspase SUDHL10 [M] (median)
Outline: as §1

SUDHL5 [3] = test: Induction of cytotoxicity in SUDHL5 cells, CellTiter-Glo (Assay 6); type: cell-based; conditions: Homo sapiens, SU-DHL-5, 5 h, SUDHL5, 5 hours incubation, median, read-out: Cytotox SUDHL5 [M] (median)
Outline: (§2)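 Short-exposure cytotoxicity: 5 h compound, 37° C, humidified; CellTiter-Glo luminescence; cell-free medium control; edge wells omitted.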

SUDHL10 [4] = test: Induction of cytotoxicity in SUDHL10 cells, CellTiter-Glo (Assay 6); type: cell-based; conditions: Homo sapiens, SU-DHL10, 5 h, SUDHL10, 5 hours incubation, median, read-out: Cytotox SUDHL10 [M] (median)
Outline: as §2

SUDHL5 [5] = test: Anti-proliferative effect in SUDHL5 cells, CellTiter-Glo (Assay 7); type: cell-based; conditions: Homo sapiens, SU-DHL-5, 72 h, SUDHL5, 72 hours incubation, CellTiter-Glo; median; read-out: Antiproli SUDHL5 [M] (median)
Outline: (§3)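 Overnight seeding at 37 °C, then 72 h treatment with compound; day 0 plate read at start. Luminescent ATP-based viability readout (CellTiter-Glo). IC50 normalised between day 0 and DMSO values.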

MV-4-11 = test: Anti-proliferative effect in MV-4-11 cells, CellTiter-Glo (Assay 7); type: cell-based; conditions: MV-4-11, 72 hours incubation, CellTiter-Glo, several values per example, read-out: Antiproli MV-4-11
Outline: as §3

A2780 = test: Anti-proliferative effect in A2780 cells, CellTiter-Glo (Assay 7); type: cell-based; conditions: A2780, 72 hours incubation, CellTiter-Glo, several values per example, read-out: Antiproli A2780
Outline: as §3

AMO-1 = test: Anti-proliferative effect in AMO-1 cells, CellTiter-Glo (Assay 7); type: cell-based; conditions: AMO-1, 72 hours incubation, CellTiter-Glo, several values per example, read-out: Antiproli AMO-1
Outline: as §3

MCL-1, sequence (Q07820 173-321 K194A/K197A/R201A, looked up): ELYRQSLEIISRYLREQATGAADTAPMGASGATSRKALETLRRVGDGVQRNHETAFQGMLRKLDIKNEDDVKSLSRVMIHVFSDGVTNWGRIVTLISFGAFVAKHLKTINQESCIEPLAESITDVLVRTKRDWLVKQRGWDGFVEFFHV
BCL-XL, sequence (Q07817 1-212): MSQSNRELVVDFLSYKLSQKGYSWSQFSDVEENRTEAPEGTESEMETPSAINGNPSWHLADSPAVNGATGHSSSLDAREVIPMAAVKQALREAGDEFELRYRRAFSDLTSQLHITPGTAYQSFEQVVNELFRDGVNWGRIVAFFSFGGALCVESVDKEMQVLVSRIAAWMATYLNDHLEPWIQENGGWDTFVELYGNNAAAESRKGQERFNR
BCL-2, sequence (P10415 1-211): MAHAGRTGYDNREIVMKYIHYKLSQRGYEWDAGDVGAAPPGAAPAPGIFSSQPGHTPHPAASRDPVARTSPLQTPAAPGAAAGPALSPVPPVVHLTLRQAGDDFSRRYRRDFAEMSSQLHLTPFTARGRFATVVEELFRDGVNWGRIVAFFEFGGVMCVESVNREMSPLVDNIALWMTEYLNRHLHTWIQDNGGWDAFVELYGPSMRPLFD

Compound | IC50 (MCL-1) [M] | IC50 (BCL-XL) [µM] | IC50 (BCL-2) [µM] | EC50 (SUDHL5 [1]) [M] | EC50 (SUDHL10 [2]) [M] | IC50 (SUDHL5 [5]) [M] | IC50 (MV-4-11; Homo sapiens, MV4-11, 72 h) [µM] | IC50 (A2780; Homo sapiens, A2780, 72 h) [µM] | IC50 (MV-4-11) [µM] | IC50 (A2780) [µM] | IC50 (SUDHL5 [3]) [M] | IC50 (SUDHL10 [4]) [M] | IC50 (AMO-1) [µM] | IC50 (AMO-1; Homo sapiens, AMO1, 72 h) [µM]
Cc1c2c(nn1C)COCc1ccccc1Cn1c(C(=O)O)c(CCCOc3cccc4c3CCC4)c3ccc(F)c-2c31 (racemic) [Example 61, (rac)-1-(3-((2,3-Dihydro-1H-inden-4-yl)oxy)propyl)-15-fluoro-13,14-dimethyl-4,9,11,13-tetrahydrobenzo[3,4]pyrazolo[4′,3′:9,10][1,6]oxaazacycloundecino[8,7,6-hi]indole-2-carboxylic Acid] | 2.1e-09 | > 20 | > 20 | 2.5e-06 | 5.8e-06 | 2.1e-06 | 3.57 | 22.8 |  |  | 2.3e-06 | 5e-06 |  | 
CCc1nn(C)c2c1-c1c(F)ccc3c(CCCOc4cccc5c4CCC5)c(C(=O)O)n(c13)Cc1ccccc1COC2 (racemic) [Example 87, (rac)-1-(3-((2,3-Dihydro-1H-inden-4-yl)oxy)propyl)-14-ethyl-15-fluoro-12-methyl-4,9,11,12-tetrahydrobenzo[3,4]pyrazolo[4′,3′:9,10][1,6]oxaazacycloundecino[8,7,6-hi]indole-2-carboxylic Acid] | 4.5e-09 | > 20 | 13.7 | 2.3e-06 | 9.4e-06 | 2.1e-06 | 12.4 |  | 6.98 |  | 3.2e-06 | 6e-06 | 6.64 | 12.9
CCc1nn(C)c2c1-c1c(F)ccc3c(CCCOc4cccc5ccccc45)c(C(=O)O)n(c13)Cc1ccccc1COC2 (racemic) [Example 91, (rac)-14-Ethyl-15-fluoro-12-methyl-1-(3-(naphthalen-1-yloxy)propyl)-4,9,11,12-tetrahydrobenzo[3,4]pyrazolo[4′,3′:9,10][1,6]oxaazacycloundecino[8,7,6-hi]indole-2-carboxylic Acid] | 8.6e-09 | > 20 | ≥ 20.5 | 2.8e-06 | 1.2e-05 | 3.6e-06 | 12.4 |  | 11.7 |  | 3.2e-06 | 7.5e-06 | 15.3 | 18.7
Cc1c2c(nn1C)COCc1ccccc1Cn1c(C(=O)O)c(CCCOc3ccc(F)c4ccccc34)c3ccc(F)c-2c31 (racemic) [Example 63, (rac)-15-Fluoro-1-(3-((4-fluoronaphthalen-1-yl)oxy)propyl)-13,14-dim4,9,11,13-tetrahydrobenzo[3,4]pyrazolo[4′,3′:9,10][1,6]oxaazacycloundecino[8,7,6-hi]indole-2-carboxylic Acid] | 4.5e-09 | > 20 | 18.1 | 9.3e-06 | 2.3e-05 | 6.2e-06 | > 33 | 19.7 |  |  | 8.3e-06 | 1.5e-05 |  | 
CCc1c2c(nn1C)COCc1ccccc1Cn1c(C(=O)O)c(CCCOc3ccc(F)c4ccccc34)c3ccc(F)c-2c31 (racemic) [Example 76, (rac)-14-Ethyl-15-fluoro-1-(3-((4-fluoronaphthalen-1-yl)oxy)propyl)-13-methyl-4,9,11,13-tetrahydrobenzo[3,4]pyrazolo[4′,3′:9,10][1]oxa[6]azacycloundecino[8,7,6-hi]indole-2-carboxylic Acid] | 3.1e-09 | > 20 | 15.8 | 3.3e-06 | 1.3e-05 | 3.7e-06 | 9.05 | 16.6 | 10.1 | 25 | 3.4e-06 | 9.4e-06 |  | 
Cc1c2c(nn1C)COCc1nc3ccccc3nc1Cn1c(C(=O)O)c(CCCOc3cccc4ccccc34)c3cccc-2c31 (racemic) [Example 10, (rac)-4,5-Dimethyl-19-[3-(naphthalen-1-yloxy)propyl]-5,7,9,16-tetrahydroindolo[1′,7′:6,7,8]-pyrazolo[4′,3′:9,10][1,6]oxazacycloundecino[3,4-b]quinoxaline-18-carboxylic Acid] |  | > 20 | > 20 | 4.3e-06 | 1.8e-05 | 5.1e-06 |  | > 33 |  | 20.6 | 5.6e-06 | 1.4e-05 |  | 
Cc1cc(OCCCc2c(C(=O)O)n3c4c(c(F)ccc24)-c2c(nn(C)c2C)COCc2ccccc2C3)cc(C)c1Cl [Example 60, (rac)-1-(3-(4-Chloro-3,5-dimethylphenoxy)propyl)-15-fluoro-13,14-dimethyl-4,9,11,13-tetrahydrobenzo[3,4]pyrazolo[4′,3′:9,10][1,6]oxaazacycloundecino[8,7,6-hi]indole-2-carboxylic Acid] | 2.9e-09 | > 20 | 19.8 | 3e-06 | 1.2e-05 | 5.1e-06 | 5.75 | 23 |  |  | 3.7e-06 | 7.6e-06 |  | 
Cc1c2c(nn1C)COCc1ccccc1Cn1c(C(=O)O)c(CCCOc3cccc4c3CCCC4)c3ccc(F)c-2c31 (racemic) [Example 62, (rac)-15-Fluoro-13,14-dimethyl-1-(3-((5,6,7,8-tetrahydronaphthalen-1-yl)oxy)propyl)-4,9,11,13-tetrahydrobenzo[3,4]pyrazolo[4′,3′:9,10][1,6]oxaazacycloundecino[8,7,6-hi]indole-2-carboxylic Acid] | 2.6e-09 | > 20 | > 20 | 3.2e-06 | 1e-05 | 3.1e-06 | 6.36 | 13.9 |  |  | 2.9e-06 | 5.2e-06 |  | 

More lines, main results first:

IC50 (MCL-1) [M] | IC50 (BCL-XL) [µM] | IC50 (BCL-2) [µM] | EC50 (SUDHL5 [1]) [M] | EC50 (SUDHL10 [2]) [M] | IC50 (SUDHL5 [5]) [M] | IC50 (MV-4-11; Homo sapiens, MV4-11, 72 h) [µM] | IC50 (A2780; Homo sapiens, A2780, 72 h) [µM] | IC50 (MV-4-11) [µM] | IC50 (A2780) [µM] | Compound | IC50 (SUDHL5 [3]) [M] | IC50 (SUDHL10 [4]) [M] | IC50 (AMO-1) [µM] | IC50 (AMO-1; Homo sapiens, AMO1, 72 h) [µM]
7.4e-09 | > 20 | 13.7 | 6.2e-06 | 1.7e-05 | 6e-06 | 9.93 | 15.1 |  |  | CCc1nn(C)c2c1-c1c(F)ccc3c(CCCOc4cccc5c4CCCC5)c(C(=O)O)n(c13)Cc1ccccc1COC2 (racemic) [Example 88, (rac)-14-Ethyl-15-fluoro-12-methyl-1-(3-((5,6,7,8-tetrahydronaphthalen-1-yl)oxy)propyl)-4,9,11,12-tetrahydrobenzo[3,4]pyrazolo[4′,3′:9,10][1,6]oxaazacycloundecino[8,7,6-hi]indole-2-carboxylic Acid] | 7.4e-06 | 1.5e-05 |  | 
6.2e-09 | > 20 | > 20 | 9.8e-06 | 2.7e-05 | 7.7e-06 | 12.5 | 31 |  |  | Cc1nn(C)c2c1-c1c(F)ccc3c(CCCOc4cccc5c4CCC5)c(C(=O)O)n(c13)Cc1ccccc1COC2 (racemic) [Example 84, (rac)-1-(3-((2,3-Dihydro-1H-inden-4-yl)oxy)propyl)-15-fluoro-12,14-dimethyl-4,9,11,12-tetrahydrobenzo[3,4]pyrazolo[4′,3′:9,10][1]oxa[6]azacycloundecino[8,7,6-hi]indole-2-carboxylic Acid] | 1.1e-05 | 2.2e-05 |  | 
2.6e-09 | 19.6 | 15.6 | 2.9e-06 | 1.3e-05 | 9.2e-06 | 2.33 | 17 |  |  | CCc1c2c(nn1C)COCc1ccccc1Cn1c(C(=O)O)c(CCCOc3cc(C)c(Cl)c(C)c3)c3ccc(F)c-2c31 (racemic) [Example 79, (rac)-1-(3-(4-Chloro-3,5-dimethylphenoxy)propyl)-14-15-fluoro-13-methyl-4,9,11,13-tetrahydrobenzo[3,4]pyrazolo[4′,3′:9,10][1]oxa[6]azacycloundecino[8,7,6-hi]indole-2-carboxylic Acid] | 2.1e-06 | 1e-05 |  | 
